Assay [1] concerns the target S. aureus class II fructose 1,6-bisphosphate aldolase (SaFBA) (Staphylococcus aureus, UniProt Q5HE75). The experiment in a line: biochemical. The note with it: read-out: % inhibition at 25 μM.
Assay [2] has as its target E. coli class II fructose 1,6-bisphosphate aldolase (EcFBA) (Escherichia coli, UniProt P0AB71). Kind of assay: coupled fluorescence FBP cleavage assay, single concentration. The note with it: read-out: % inhibition at 25 μM. It is filed as biochemical.
In assay [3] the target is M. tuberculosis class II fructose 1,6-bisphosphate aldolase (MtFBA) (Mycobacterium tuberculosis, UniProt P9WQA3). The experiment in a line: X-ray crystal structure. It is filed as binding.

Broadly, the inhibition is the drop in the measured response relative to a control, in per cent. A word on the Kd: it is the constant that tells how readily two partners part at equilibrium. A low value points to higher affinity.

S. aureus class II fructose 1,6-bisphosphate aldolase (SaFBA), sequence (Q5HE75 whole entry): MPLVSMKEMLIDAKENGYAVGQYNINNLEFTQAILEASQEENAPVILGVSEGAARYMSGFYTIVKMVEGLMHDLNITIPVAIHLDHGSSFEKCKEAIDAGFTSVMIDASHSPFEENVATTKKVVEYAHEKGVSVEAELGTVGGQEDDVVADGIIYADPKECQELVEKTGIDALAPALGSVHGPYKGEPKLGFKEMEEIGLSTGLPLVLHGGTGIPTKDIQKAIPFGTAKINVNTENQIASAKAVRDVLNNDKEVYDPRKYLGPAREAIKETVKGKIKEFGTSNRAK
E. coli class II fructose 1,6-bisphosphate aldolase (EcFBA), sequence (P0AB71 2-359): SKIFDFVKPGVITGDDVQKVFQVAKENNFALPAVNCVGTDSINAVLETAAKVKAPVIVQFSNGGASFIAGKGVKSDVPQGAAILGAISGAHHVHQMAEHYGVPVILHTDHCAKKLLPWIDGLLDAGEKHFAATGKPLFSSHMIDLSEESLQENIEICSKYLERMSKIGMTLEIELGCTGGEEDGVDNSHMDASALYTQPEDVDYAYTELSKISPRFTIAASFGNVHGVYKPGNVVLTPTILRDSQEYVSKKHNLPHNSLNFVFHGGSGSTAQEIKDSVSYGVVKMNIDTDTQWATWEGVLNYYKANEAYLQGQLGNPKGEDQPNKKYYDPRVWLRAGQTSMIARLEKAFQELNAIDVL
M. tuberculosis class II fructose 1,6-bisphosphate aldolase (MtFBA), sequence (P9WQA3 whole entry): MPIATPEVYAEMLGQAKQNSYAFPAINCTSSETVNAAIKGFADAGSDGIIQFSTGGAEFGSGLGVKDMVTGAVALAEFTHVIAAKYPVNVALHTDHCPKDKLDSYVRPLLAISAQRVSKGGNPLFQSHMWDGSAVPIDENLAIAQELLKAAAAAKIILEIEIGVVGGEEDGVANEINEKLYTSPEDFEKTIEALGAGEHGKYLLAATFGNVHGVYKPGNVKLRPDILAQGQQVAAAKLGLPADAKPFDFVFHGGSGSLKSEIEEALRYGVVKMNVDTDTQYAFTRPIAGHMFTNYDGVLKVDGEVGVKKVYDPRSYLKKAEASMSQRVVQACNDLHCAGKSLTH

Consider `O=C(O)c1ccc2cccc(O)c2n1` [HCA, 8-hydroxyquinoline-2-carboxylic acid], for which the inhibition at 25 µM in assay [1] was 64.3 ± 0.6%; in assay [2] it was 42.2 ± 2.8%. This compound also returned a Kd in assay [3] of 70.8 ± 2.7 µM.

The record behind these values is paper PMC4167715 (Biochemistry, 2013).
